The text below walks through data of patent publication US12070457B2, “Substituted pyridines, pyridazines, pyrimidines, and 1,2,3-triazines as bruton's tyrosine kinase inhibitors” (HUTCHISON MEDIPHARMA LIMITED, priority 2020, dated 2024).

The experiment concerns the target BTK recombinant protein (Homo sapiens (Human), UniProt Q06187). Description: Determination of biochemical BTK (Z'-LYTE kinase assay). An excerpt: Example 2 Determination of Biochemical BTK
1. Reagents and Materials
• BTK recombinant protein: Invitrogen, Cat #PV3363; • Z′-LYTE® kinase test kit-tyrosine 1 peptide: Invitrogen, Cat #PV3190; • 384-well low-flange black flat-bottomed polystyrene NBS microplate, no lid, no sterilization: Corning, Cat #3575; • 96-well polystyrene conical-bottomed MicroWell™ plate, sealed with a lid: Thermo Scientific™ Nunc™, Cat #277143; • Envision multi-mode plate reader: PerkinElmer; • Mixmate® shaker: Eppendorf; • TS-2102 shaking incubator: TENSUC; 2. Methods
Z′-LYTE® biochemical assay employs a fluorescence resonance energy transfer (FRET)-based, coupled-enzyme format and is based on the differential sensitivity of phosphorylated and non-phosphorylated peptides to proteolytic cleavage. Both ends of the short peptide substrate are labeled with two fluorescent groups to form a FRET paired combination. In the primary reaction (the Kinase Reaction), the kinase transfers the γ-phosphate of ATP to a single […] residue on the short peptide substrate. In the secondary reaction (the development reaction), the non-phosphorylated short peptides were recognized and cleaved by a site-specific protease (the development reagent). Phosphorylated short peptides can resist such cleavage. Cleavage of short peptides can disrupt the donor (such as coumarin) and receptor fluorophores (fluorescein) on the short peptides, while the phosphorylated short peptides can maintain FRET. The calculation method of the ratio is as follows, and the ratio of the respective emission signals generated by the donor fluorophores emitted (after excitation at 400 nm) to the receptors is calculated. Emission signal ratio=emitted light by coumarin (445 nm)/emitted light by fluorescein (520 nm). If the FRET short peptide is phosphorylated (such as no kinase inhibitor), the emitted light ratio will remain in a lower level. If the FRET short peptide is non-phosphorylated (such as kinase inhibitor), the emitted light ratio will be in a higher level. In this way, the inhibitory effects of different compound inhibitors on BTK kinase activity would be distinguished.
The experiment were carried out according to the instructions of the Z′-LYTE® kinase test kit-tyrosine 1 peptide. Reagent preparation: 1.33× kinase buffer: 5× kinase buffer was diluted with water to 1.33× kinase buffer; an enzyme solution: the kinase was dissolved in 1.33× kinase buffer with the final working concentration being 3.32 nM; a short peptide solution: a short peptide stock solution (1 mM dissolved in DMSO) was dissolved in 1.33× kinase buffer with the final working concentration being 2 μM; Z′-LYTE Tyr01 phosphorylated short peptide solution, 0.6 μl of stock solution (1 mM dissolved in DMSO) was dissolved in 149.4 μl of 1.33× kinase buffer; an ATP solution: an ATP stock solution (10 mM aqueous solution) was dissolved in 1.33× kinase buffer with the final working concentration being 32 μM; a color-developing solution: color-developing solution B was dissolved in color-developing buffer with the final working concentration being 1× color-developing solution; 4× compound preparation: the compound was diluted in 3-fold gradient concentration to finally obtain 4% DMSO aqueous solution containing different concentrations of the compound, with the final working concentration being 3000, 1000, 333.33, 111.11, 37.04, 12.35, 4.12, 1.37 nM, 8 concentration points in total.
Specific steps of the experiment: In the experiment, there were three control groups, each with 8 replicate wells, which were C1 100% inhibition group (no ATP), C2 0% inhibition group (with ATP), and C3 100% phosphorylation group, respectively. 2.5 μl of serially diluted compound was added to each well of a 384-well plate, with double replicate wells, and 4% DMSO solution was added to wells C1, C2, and C3. […]

Chain of BTK recombinant protein (Q06187 whole entry): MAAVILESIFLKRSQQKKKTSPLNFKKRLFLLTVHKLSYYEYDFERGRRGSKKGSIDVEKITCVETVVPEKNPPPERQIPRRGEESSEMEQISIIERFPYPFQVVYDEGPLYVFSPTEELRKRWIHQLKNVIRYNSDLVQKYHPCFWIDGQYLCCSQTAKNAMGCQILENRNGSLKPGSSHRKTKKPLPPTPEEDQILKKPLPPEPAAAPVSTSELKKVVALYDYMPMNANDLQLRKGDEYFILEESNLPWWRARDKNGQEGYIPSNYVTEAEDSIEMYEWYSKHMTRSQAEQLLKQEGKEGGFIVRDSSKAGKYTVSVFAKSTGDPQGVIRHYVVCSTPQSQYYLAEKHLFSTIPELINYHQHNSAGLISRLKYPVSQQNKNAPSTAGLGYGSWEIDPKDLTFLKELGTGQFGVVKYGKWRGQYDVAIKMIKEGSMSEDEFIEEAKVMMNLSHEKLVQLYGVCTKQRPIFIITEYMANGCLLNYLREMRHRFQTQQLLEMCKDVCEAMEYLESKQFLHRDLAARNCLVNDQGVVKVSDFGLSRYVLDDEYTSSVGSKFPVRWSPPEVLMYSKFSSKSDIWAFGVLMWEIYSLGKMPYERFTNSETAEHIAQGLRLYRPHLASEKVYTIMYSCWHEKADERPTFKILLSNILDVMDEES

As to `C[C@H]1CN(C2COC2)CCN1c1ccc(Nc2cc(-c3ccnc(-n4ccn5c6c(cc5c4=O)CC(C)(C)C6)c3CO)cn(C)c2=O)nc1` [Compound 19], the concentration for half-maximal inhibition (IC50) stood at 8 nM.
